Assay results published in publication PMC13429874, “ABHD2 activity is not required for the non-genomic action of progesterone on human sperm” (Human Reproduction (Oxford, England), 2026).
“Also recorded” adds a separate entry of the source. Read-outs that look alike come from different tables or passages of the source.

Legend:
[1] = target: T1, full-length human ABHD2 (ABHD2^FL) (Homo sapiens, UniProt P08910); test: ABHD2^FL enzymatic activity assay with 7-HCA substrate; format: biochemical
T1 construct: TEV site-eGFP-8xHis (C, cleaved yes); made in house; host or cells: SF9 insect cells (baculovirus)
T1 sequence (P08910 1-425): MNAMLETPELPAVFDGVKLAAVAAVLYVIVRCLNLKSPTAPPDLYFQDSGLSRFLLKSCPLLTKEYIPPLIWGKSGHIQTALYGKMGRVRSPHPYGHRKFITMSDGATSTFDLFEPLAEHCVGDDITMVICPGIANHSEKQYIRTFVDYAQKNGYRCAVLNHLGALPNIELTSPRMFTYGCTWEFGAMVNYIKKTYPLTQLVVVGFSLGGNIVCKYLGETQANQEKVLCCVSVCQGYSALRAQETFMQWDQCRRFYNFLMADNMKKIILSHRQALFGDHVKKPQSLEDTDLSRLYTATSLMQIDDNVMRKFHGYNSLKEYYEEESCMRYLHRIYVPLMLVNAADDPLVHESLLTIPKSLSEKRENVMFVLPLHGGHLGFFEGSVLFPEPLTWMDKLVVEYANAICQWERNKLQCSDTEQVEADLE

[2] = target: T1, full-length human ABHD2 (ABHD2^FL); test: ABHD2^FL enzymatic activity assay with resorufin butyrate (RB) substrate; format: biochemical
ABHD2^L33–E425 [3] = target: T2, ABHD2^L33–E425 (Homo sapiens, UniProt P08910); test: ABHD2^L33-E425 fluorometric enzymatic activity assay with 7-HCA substrate; format: biochemical; settings: for IC50: 10 nM enzyme, 10 µM 7-HCA, read-out: IC50 for ABHD2^L33-425, fluorometric assay using 7-HCA
T2 construct: expression for ABHD2 amino acids L33–E425, in which a predicted transmembrane domain (amino acids 1–32) is removed; His6-FLAG (N); made in house; host or cells: E. coli BL21(DE3)-R3-pRARE2
T2 sequence (P08910 33-425): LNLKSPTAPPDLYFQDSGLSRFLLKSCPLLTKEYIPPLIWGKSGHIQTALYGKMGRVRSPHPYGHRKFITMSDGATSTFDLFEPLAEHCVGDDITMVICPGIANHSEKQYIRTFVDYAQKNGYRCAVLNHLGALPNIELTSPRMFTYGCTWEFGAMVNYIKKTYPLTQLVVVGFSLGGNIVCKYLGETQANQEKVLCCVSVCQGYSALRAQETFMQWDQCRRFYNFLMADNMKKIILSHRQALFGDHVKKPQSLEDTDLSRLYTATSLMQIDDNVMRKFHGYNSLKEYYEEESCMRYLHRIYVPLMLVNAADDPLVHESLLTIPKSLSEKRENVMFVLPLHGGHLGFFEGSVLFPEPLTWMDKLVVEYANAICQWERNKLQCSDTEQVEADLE

CatSper = settings: cited from earlier work
human sperm [4] = test: Sperm intracellular Ca2+ measurements (Fluo-4); format: cell-based; settings: for compound-evoked changes in [Ca2+]i: 10 µM compound; for effect on progesterone-induced Ca2+ signal (amplitude and waveform): compounds 10 µM, TS150 60 µM, progesterone 3 µM
Method: Measurements of the changes in sperm intracellular Ca^2+ concentration ([Ca^2+]i) were performed on motile human sperm purified by swim-up. Semen samples were allowed to liquefy for 15–60 min at 37°C, and 0.5–1 ml liquified semen was layered beneath 4 ml human tubal fluid medium (HTF; 97.8 mM NaCl, 4.69 mM KCl, 0.2 mM MgSO4, 0.37 mM KH2PO4, 2.04 mM CaCl2, 2.78 mM glucose, 0.33 mM sodium pyruvate, 21.4 mM lactic acid, 4 mM NaHCO3, and 21 mM HEPES pH 7.35 adjusted with NaOH) in 50 ml conical tubes. Motile sperm were allowed to swim up into the HTF for 60–90 min at 37°C, collected, washed twice (700 × g, 20 min, 37°C), and resuspended in HTF containing 3 mg/ml HSA at a density of 1 × 10^7 sperm/ml. Changes of [Ca^2+]i in motile human sperm were measured as previously described ([Rennhack et al., 2018]), using a fluorescence plate-reader assay (FLUOstar Omega, BMG LABTECH) with 384-well plates. Swim-up-purified sperm were loaded with Fluo4-AM (5 μM, Thermo Fisher Scientific, Waltham, MA, USA) and Pluronic F-127 (0.05% w/v) for 20 min at 37°C. Excess dye was removed by centrifugation at 700 × g for 5 min, supernatant removal, and resuspension to 5 × 10^6 sperm/ml in HTF.
For recordings, wells of a 384-well plate were filled with 50 μl of the dye-loaded sperm suspension. Fluorescence was excited at 480 nm, and emission was recorded at 520 nm using a plate reader (Fluostar Omega, BMG Labtech). After establishing a baseline for at least 60 s, 25 µl test compound solutions were added and the fluorescence response recorded. After 4 min, 7.5 µl progesterone was added to reach a final concentration of 3 µM, and ensuing changes in fluorescence were recorded. For the analysis of compound-evoked Ca^2+ signal, basal fluorescence (F0) was determined prior to compound addition. For the determination of inhibitory effects of compounds on progesterone-evoked Ca^2+ signals, basal fluorescence (F0) was determined before progesterone addition. The CatSper inhibitor TS150 ([Schierling et al., 2023]) was used as a control. Each compound was tested in technical duplicates across ≥3 biological replicates, using sperm from at least two donors, and performed on at least two separate days.
Data analysis and graphical representation were performed with GraphPad Prism software version 10.6.1 (San Diego, CA, USA). Changes in Fluo-4 fluorescence are depicted as ΔF/F0 (%), i.e. the change in fluorescence (ΔF) relative to the mean basal fluorescence (F0) before application of buffer or compounds/ligands, to correct for intra- and inter-experimental variations in basal fluorescence among individual wells or to correct for compound-evoked changes in fluorescence. Signal amplitudes evoked in the presence of compounds were normalized to the maximal signal amplitude evoked by 3 µM progesterone in the absence of the compound (set to 1) to ease comparisons between experiments.

ABHD2^L33–E425 [5] = target: T2, ABHD2^L33–E425; test: Differential scanning fluorimetry (DSF) with purified ABHD2^L33–E425; format: binding; settings: for ΔTm shift for ABHD2^L33-425 determined by DSF: purified protein
human sperm [6] = test: Sperm hyperactivation assay (CASA); format: cell-based; settings: 10 µM compound, 30 min; for effect on progesterone-induced hyperactivation: 3 µM progesterone
Method: Sperm hyperactivation was assessed in human sperm purified by density gradient centrifugation. Semen samples (n = 7) were allowed to liquefy for 15–30 min at 37°C, and up to 2 ml of liquified semen was layered onto a two-step GM501 gradient system (45%/90%; Gynemed; Sierksdorf, Germany) pre-equilibrated at 37°C. Gradients were centrifuged for 20 min at 400 × g (no break). The 90% pellet was collected, washed in SpermActive medium (Gynemed; composition per manufacturer: NaCl, KCl, MgSO4.7H2O, KH2PO4, 1.77 mM CaCl2.2H2O, D(+)-glucose anhydrous, sodium pyruvate, sodium lactate, EDTA, alanyl-glutamine, essential and non-essential amino acids, 25.71 mM NaHCO3, 15 mM HEPES, 5 g/l human serum albumin, 10 mg/l gentamicin, and phenol red), and incubated for at least 2 h at 37°C, 5% CO2.
For compound testing, sperm suspensions with 7.5 × 10^6 sperm/ml in SpermActive were treated with either DMSO (vehicle) or 10 µM test compound. For basal and induced hyperactivation conditions, DMSO or progesterone (3 µM), respectively, was added. Samples were incubated for 30 min at 37°C, 5% CO2, before motility analysis.
Motility was analyzed using a CASA system (CEROSII^TM Animal Motility, software version 1.16; Hamilton Thorne, Beverly, MA, USA), mounted on an Axiolab 5 microscope (Zeiss, Germany), equipped with a TPi-SX Thermal Plate (Tokai Hit; Shizuoka-ken, Japan) and a JAI CM-040-GE CCD camera (JAI; Tokyo, Japan). Leja slides (20 µm chamber depth; Leja Products B.V., Nieuw-Vennep, The Netherlands) were pre-warmed to 37°C, cleaned with lens paper, and loaded by capillary action with 6 µl sperm suspension; capillary correction was set to 1.3. Sperm tracks were recorded at 37°C using a 10× negative-phase objective, acquiring 60 frames at 60 Hz with 4 ms exposure and gain set to 600. For each sample and condition, 300–500 motile sperm from at least 10 non-overlapping fields were analyzed. Hyperactive sperm were identified using the SORT function with the following Boolean argument: VCL > 150 µm/s and LIN < 50% and ALH > 7 µm. For each sample and condition, the percentage of hyperactive sperm was normalized to the percentage of motile sperm, and the mean of two technical duplicates was reported.
Statistical analysis was performed using GraphPad Prism 10 for Windows (version 10.6.1). Data normality was assessed using Shapiro–Wilk test. Differences between basal and induced hyperactivation were evaluated using a paired t-test, with effective pairing confirmed across all comparisons. P < 0.05 was considered statistically significant.

Structure (SMILES)	compound-evoked changes in [Ca2+]i (human sperm [4])	effect on progesterone-induced Ca2+ signal (amplitude and waveform) (human sperm [4])	IC50 (ABHD2^L33–E425 [3])	ΔTm shift for ABHD2^L33-425 determined by DSF (ABHD2^L33–E425 [5])	effect on progesterone-induced hyperactivation (human sperm [6])	effect on basal hyperactivation (human sperm [6])	also measured
CCCCCCCCCCC[C@@H](C[C@@H]1OC(=O)[C@H]1CCCCCC)OC(=O)[C@H](CC(C)C)NC=O [Orlistat]	–	–	–	–	–	–	IC50 ([1]; 5 µM 7-HCA, read-out: IC50, ABHD2^FL, 7-HCA assay): 969 nM; IC50 ([2]; 15 µM RB): 305 nM
CCCC(=O)Oc1ccc2nc3ccc(=O)cc-3oc2c1 [RB, resorufin butyrate]	–	–	–	–	–	–	Km ([2]; 25 nM ABHD2^FL, read-out: Km of substrate hydrolysis by ABHD2^FL): 23 µM
COC(=O)[C@]1(C)CC[C@]2(C)CC[C@]3(C)C4=CC=C5C(=CC(=O)C(O)=C5C)[C@]4(C)CC[C@@]3(C)[C@@H]2C1 [pristimerin]	–	–	–	–	–	–	effect on enzymatic activity of purified ABHD2^FL [1]: did not affect; effect on enzymatic activity of purified ABHD2^L33–E425 (ABHD2^L33–E425 [3]): did not affect; progesterone-induced Ca2+ influx and hyperactivation (CatSper): inhibitors; progesterone-induced CatSper activation (CatSper): do not interfere
O=C(N1CCCCC1)N1CCCC[C@@H]1Cc1ccccc1 [(R)-1]	only minuscule changes	similar	1200 nM	3.0 °C	not affected	No statistically significant differences; also recorded: did not affect	–
O=C(N1CCCCC1)N1CCCC[C@@H]1c1ccccc1 [(R)-2]	only minuscule changes	similar	220 nM	8.4 °C	not affected	No statistically significant differences; also recorded: did not affect	IC50 ([1]; Supplementary Table S2, read-out: IC50 measured in ABHD2^FL in the 7-HCA Assay): 240 nM
C=C(C)[C@@H]1CC[C@]2(C)CC[C@]3(C)[C@H](CC[C@@H]4[C@@]5(C)CC[C@H](O)C(C)(C)[C@@H]5CC[C@]43C)[C@@H]12 [lupeol]	–	–	–	–	–	–	effect on enzymatic activity of purified ABHD2^L33–E425 (ABHD2^L33–E425 [3]; 5 µM steroid or triterpenoid, 300 nM 7-HCA): weak inhibitory action; effect on heat-induced denaturation of ABHD2^L33–E425 (DSF binding) (ABHD2^L33–E425 [5]; 40 µM steroid, 30 min pre-incubation): did not affect; progesterone-induced CatSper activation (CatSper; ref Brenker et al., 2018, Rehfeld, 2020, Rehfeld and Marcus Pedersen, 2022): do not interfere; progesterone-induced Ca2+ influx and hyperactivation (CatSper; ref Mannowetz et al., 2017): inhibitors
